{"source": "the supplement of paper PMC10307832", "assay_in_all_cases": "relative viability (nuclei count vs DMSO), 5 days (fraction); higher = more cells survive", "key": {"[1]": {"system": "NCI-H1755", "procedure,_shortened": "(§1)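 Each reported value is a median over duplicate plates. It expresses relative viability: treated-well nuclei count divided by vehicle-well nuclei count. Lung cancer cell lines in 1536-well plates were dosed by pin tool a day after seeding, alone with one drug or with a fixed anchor-drug dose plus five library-drug doses (not always all listed) in √10 steps, and nuclei were counted after 5 days.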"}, "[2]": {"system": "SK-LU-1", "procedure,_shortened": "as §1"}, "[3]": {"system": "NCI-H1975", "procedure,_shortened": "as §1"}, "[4]": {"system": "RERF-LC-KJ", "procedure,_shortened": "as §1"}, "[5]": {"system": "SK-MES-1", "procedure,_shortened": "as §1"}, "[6]": {"system": "LCLC-103H", "procedure,_shortened": "as §1"}, "[7]": {"system": "NCI-H1355", "procedure,_shortened": "as §1"}, "[8]": {"system": "UMC-11", "procedure,_shortened": "as §1"}, "[9]": {"system": "NCI-H2170", "procedure,_shortened": "as §1"}, "[10]": {"system": "NCI-H1915", "procedure,_shortened": "as §1"}, "[11]": {"system": "NCI-H1734", "procedure,_shortened": "as §1"}, "[12]": {"system": "NCI-H1792", "procedure,_shortened": "as §1"}}, "data": [{"smiles": "CCNC(=O)c1noc(-c2cc(C(C)C)c(O)cc2O)c1-c1ccc(CN2CCOCC2)cc1", "note": "[Luminespib] + N=C(N)NC(=N)NCCc1ccccc1 [Phenformin] (partner 250 µM)", "values": [{"measurement": "relative viability", "setting": "[1]; first compound 0.02 µM", "value": 0.552}, {"measurement": "relative viability", "setting": "[1]; first compound 0.06325 µM", "value": 0.268}, {"measurement": "relative viability", "setting": "[1]; first compound 0.2 µM", "value": 0.14}, {"measurement": "relative viability", "setting": "[2]; first compound 0.002 µM", "value": 0.53}, {"measurement": "relative viability", "setting": "[2]; first compound 0.006325 µM", "value": 0.411}, {"measurement": "relative viability", "setting": "[2]; first compound 0.02 µM", "value": 0.192}, {"measurement": "relative viability", "setting": "[2]; first compound 0.06325 µM", "value": 0.0958}, {"measurement": "relative viability", "setting": "[2]; first compound 0.2 µM", "value": 0.0878}, {"measurement": "relative viability", "setting": "[3]; first compound 0.002 µM", "value": 0.401}, {"measurement": "relative viability", "setting": "[3]; first compound 0.006325 µM", "value": 0.37}, {"measurement": "relative viability", "setting": "[3]; first compound 0.02 µM", "value": 0.169}, {"measurement": "relative viability", "setting": "[3]; first compound 0.06325 µM", "value": 0.118}, {"measurement": "relative viability", "setting": "[3]; first compound 0.2 µM", "value": 0.118}, {"measurement": "relative viability", "setting": "[4]; first compound 0.002 µM", "value": 0.409}, {"measurement": "relative viability", "setting": "[4]; first compound 0.006325 µM", "value": 0.418}, {"measurement": "relative viability", "setting": "[4]; first compound 0.02 µM", "value": 0.512}, {"measurement": "relative viability", "setting": "[4]; first compound 0.06325 µM", "value": 0.25}, {"measurement": "relative viability", "setting": "[4]; first compound 0.2 µM", "value": 0.238}, {"measurement": "relative viability", "setting": "[5]; first compound 0.002 µM", "value": 0.642}, {"measurement": "relative viability", "setting": "[5]; first compound 0.006325 µM", "value": 0.623}, {"measurement": "relative viability", "setting": "[5]; first compound 0.02 µM", "value": 0.702}, {"measurement": "relative viability", "setting": "[5]; first compound 0.06325 µM", "value": 0.189}, {"measurement": "relative viability", "setting": "[5]; first compound 0.2 µM", "value": 0.193}, {"measurement": "relative viability", "setting": "[6]; first compound 0.002 µM", "value": 0.322}, {"measurement": "relative viability", "setting": "[6]; first compound 0.006325 µM", "value": 0.361}, {"measurement": "relative viability", "setting": "[6]; first compound 0.02 µM", "value": 0.351}, {"measurement": "relative viability", "setting": "[6]; first compound 0.06325 µM", "value": 0.353}, {"measurement": "relative viability", "setting": "[6]; first compound 0.2 µM", "value": 0.188}, {"measurement": "relative viability", "setting": "[7]; first compound 0.002 µM", "value": 0.431}, {"measurement": "relative viability", "setting": "[7]; first compound 0.006325 µM", "value": 0.456}, {"measurement": "relative viability", "setting": "[7]; first compound 0.02 µM", "value": 0.382}, {"measurement": "relative viability", "setting": "[7]; first compound 0.06325 µM", "value": 0.254}, {"measurement": "relative viability", "setting": "[7]; first compound 0.2 µM", "value": 0.17}, {"measurement": "relative viability", "setting": "[8]; first compound 0.002 µM", "value": 0.346}, {"measurement": "relative viability", "setting": "[8]; first compound 0.006325 µM", "value": 0.338}, {"measurement": "relative viability", "setting": "[8]; first compound 0.02 µM", "value": 0.291}, {"measurement": "relative viability", "setting": "[8]; first compound 0.06325 µM", "value": 0.213}, {"measurement": "relative viability", "setting": "[8]; first compound 0.2 µM", "value": 0.168}, {"measurement": "relative viability", "setting": "[9]; first compound 0.002 µM", "value": 0.405}, {"measurement": "relative viability", "setting": "[9]; first compound 0.006325 µM", "value": 0.398}, {"measurement": "relative viability", "setting": "[9]; first compound 0.02 µM", "value": 0.376}, {"measurement": "relative viability", "setting": "[9]; first compound 0.06325 µM", "value": 0.236}, {"measurement": "relative viability", "setting": "[9]; first compound 0.2 µM", "value": 0.158}, {"measurement": "relative viability", "setting": "[10]; first compound 0.002 µM", "value": 0.361}, {"measurement": "relative viability", "setting": "[10]; first compound 0.006325 µM", "value": 0.352}, {"measurement": "relative viability", "setting": "[10]; first compound 0.02 µM", "value": 0.407}, {"measurement": "relative viability", "setting": "[10]; first compound 0.06325 µM", "value": 0.293}, {"measurement": "relative viability", "setting": "[10]; first compound 0.2 µM", "value": 0.0788}, {"measurement": "relative viability", "setting": "[11]; first compound 0.002 µM", "value": 0.464}, {"measurement": "relative viability", "setting": "[11]; first compound 0.006325 µM", "value": 0.356}, {"measurement": "relative viability", "setting": "[11]; first compound 0.02 µM", "value": 0.3}, {"measurement": "relative viability", "setting": "[11]; first compound 0.06325 µM", "value": 0.103}, {"measurement": "relative viability", "setting": "[11]; first compound 0.2 µM", "value": 0.116}, {"measurement": "relative viability", "setting": "[12]; first compound 0.002 µM", "value": 0.265}, {"measurement": "relative viability", "setting": "[12]; first compound 0.006325 µM", "value": 0.263}, {"measurement": "relative viability", "setting": "[12]; first compound 0.02 µM", "value": 0.101}, {"measurement": "relative viability", "setting": "[12]; first compound 0.06325 µM", "value": 0.0593}, {"measurement": "relative viability", "setting": "[12]; first compound 0.2 µM", "value": 0.077}]}]}
